Laboratory results reported in patent US4394503A, “Cephalosporin derivatives” (priority 1981, dated 1983).
Converted amounts (≈) assume the structure as drawn. Read-outs that look alike come from different tables or passages of the source.

Experiments:
[1] = system: Others Group IV (C. difficile, C. perfringens, P. acne and P. anaerobius); experiment: microbe, parasite or virus in culture; format: cell-based; settings: read-out: Geometric Mean of MIC, GAM agar, 1 strain each
B. fragilis A22021 = experiment: MIC against selected test organisms (Table 2); format: cell-based; settings: Bacteroides fragilis, A22021, read-out: Minimum Inhibitory Concentration
[2] = system: Penicillin-resistant S. aureus (Gp-Ib); experiment: In vitro antibacterial activity, two-fold agar dilution, Mueller-Hinton agar (Table 1), group Gp-Ib; format: cell-based
E. coli A15148 = experiment: MIC against selected test organisms (Table 2); format: cell-based; settings: Escherichia coli
P. morganii A9553 = experiment: MIC against selected test organisms (Table 2); format: cell-based; settings: Morganella morganii
B. fragilis Group I = experiment: In vitro antianaerobic activity in GAM agar (Table 4); format: cell-based; settings: Bacteroides fragilis, read-out: Geometric Mean of MIC, GAM agar, nonlactamase-producing, ampicillin-sensitive, 3 strains
P. mirabilis A9554 = experiment: MIC against selected test organisms (Table 2); format: cell-based; settings: Proteus mirabilis
B. fragilis Group III = experiment: In vitro antianaerobic activity in GAM agar (Table 4); format: cell-based; settings: read-out: Geometric Mean of MIC, GAM agar, lactamase-producing, highly ampicillin-resistant, 2 strains
B. fragilis Group II = experiment: as above; format: cell-based; settings: Bacteroides fragilis, read-out: Geometric Mean of MIC, GAM agar, lactamase-producing, moderately ampicillin-resistant, 3 strains
[3] = system: Pr. morganii, Ent. cloacae and Ser. marcescens (Gn-II); experiment: In vitro antibacterial activity, two-fold agar dilution, Mueller-Hinton agar (Table 1), group Gn-II; format: cell-based, Pr. morganii (1), Ent. cloacae (2) and Ser. marcescens (2); settings: read-out: Geometric Mean of MIC
Ps. aeruginosa (Gn-III) = experiment: In vitro antibacterial activity, two-fold agar dilution, Mueller-Hinton agar (Table 1), group Gn-III; format: cell-based; settings: Pseudomonas aeruginosa; read-out: Geometric Mean of MIC
C. perfringens A9635 = experiment: microbe, parasite or virus in culture; format: cell-based; settings: Clostridium perfringens, A9635, read-out: Minimum Inhibitory Concentration
S. aureus Smith = experiment: MIC against selected test organisms (Table 2); format: cell-based; settings: Staphylococcus aureus; Gp-Ia, PC-S; read-out: Minimum Inhibitory Concentration
S. aureus A15092 = experiment: MIC against selected test organisms (Table 2); format: cell-based; settings: Staphylococcus aureus, Gp-Ib, PC-R, read-out: Minimum Inhibitory Concentration
S. aureus BX-1633 = experiment: MIC against selected test organisms (Table 2); format: cell-based; settings: Staphylococcus aureus, BX1633, read-out: Minimum Inhibitory Concentration
S. aureus A9497 = experiment: MIC against selected test organisms (Table 2); format: cell-based; settings: Staphylococcus aureus, Gp-Ia, PC-S, read-out: Minimum Inhibitory Concentration
[4] = system: Penicillin-sensitive S. aureus (Gp-Ia); experiment: In vitro antibacterial activity, two-fold agar dilution, Mueller-Hinton agar (Table 1), group Gp-Ia; format: cell-based; settings: Staphylococcus aureus; read-out: Geometric Mean of MIC
E. cloacae A9656 = experiment: MIC against selected test organisms (Table 2); format: cell-based; settings: Enterobacter cloacae, Gn-II, CET-R, read-out: Minimum Inhibitory Concentration
[5] = Example 4, ceftazidime (mean of 3 experiments)
[6] = Example 5 ceftazidime (mean of 2 experiments)

SMILES: CC(C)(O/N=C(\C(=O)N[C@@H]1C(=O)N2C(C(=O)[O-])=C(C[n+]3ccccc3)CS[C@H]12)c1csc(N)n1)C(=O)O [Ceftazidime, ceftazidime, reference compound]
- MIC [1, 5]: 6.2 µg/mL (≈ 11.3 µM)
- MIC [1, 6]: 8.2 µg/mL (≈ 15 µM)
- MIC (B. fragilis A22021): 12.5 µg/mL (≈ 22.9 µM)
- MIC ([2]; Staphylococcus aureus, read-out: Geometric Mean of MIC): 12.5 µg/mL (≈ 22.9 µM)
- MIC (E. coli A15148; A15148, read-out: Minimum Inhibitory Concentration): 0.4 µg/mL (≈ 0.732 µM)
- MIC (P. morganii A9553; A9553, read-out: Minimum Inhibitory Concentration): 3.1 µg/mL (≈ 5.67 µM)
- MIC (B. fragilis Group I; [5]): 5.3 µg/mL (≈ 9.7 µM)
- MIC (B. fragilis Group I; [6]): 8.9 µg/mL (≈ 16.3 µM)
- MIC (P. mirabilis A9554; A9554, read-out: Minimum Inhibitory Concentration): 0.05 µg/mL (≈ 0.0915 µM)
- MIC (B. fragilis Group III; [5]): 81 µg/mL (≈ 148 µM)
- MIC (B. fragilis Group III; [6]): > 100 µg/mL
- MIC (B. fragilis Group II; [5]): 13 µg/mL (≈ 23.8 µM)
- MIC (B. fragilis Group II; [6]): 16 µg/mL (≈ 29.3 µM)
- MIC [3]: 2.7 µg/mL (≈ 4.94 µM)
- MIC (Ps. aeruginosa (Gn-III)): 2 µg/mL (≈ 3.66 µM)
- MIC (C. perfringens A9635): 6.3 µg/mL (≈ 11.5 µM)

SMILES: CSc1cc[n+](CC2=C(C(=O)[O-])N3C(=O)C(NC(=O)/C(=N\OC(C)(C)C(=O)O)c4csc(N)n4)C3SC2)cc1 (stereo not drawn) [Example 2, 7-[(Z)-2-(2-Aminothiazol-4-yl)-2-(2-carboxyprop-2-oxyimino)-acetamido]-3-[(4-methylthiopyridinium)methyl]-3-cephem-4-carboxylate]
- MIC (B. fragilis A22021): 12.5 µg/mL (≈ 21.1 µM)
- MIC ([2]; Staphylococcus aureus; read-out: Geometric Mean of MIC): 6.3 µg/mL (≈ 10.6 µM)
- MIC (E. coli A15148; A15148, Gn-Ib, CET-R, read-out: Minimum Inhibitory Concentration): 0.2 µg/mL (≈ 0.337 µM)
- MIC (S. aureus Smith): 6.3 µg/mL (≈ 10.6 µM)
- MIC (S. aureus A15092): 6.3 µg/mL (≈ 10.6 µM)
- MIC (P. morganii A9553; A9553, Gn-II, CET-R, read-out: Minimum Inhibitory Concentration): 1.6 µg/mL (≈ 2.7 µM)
- MIC (P. mirabilis A9554; A9554, Gn-Ia, CET-S, read-out: Minimum Inhibitory Concentration): 0.05 µg/mL (≈ 0.0844 µM)
- MIC (S. aureus BX-1633): 6.3 µg/mL (≈ 10.6 µM)
- MIC (S. aureus A9497): 3.1 µg/mL (≈ 5.23 µM)
- MIC [4]: 4.7 µg/mL (≈ 7.93 µM)
- MIC (E. cloacae A9656): 0.2 µg/mL (≈ 0.337 µM)
- MIC [3]: 1.5 µg/mL (≈ 2.53 µM)
- MIC (Ps. aeruginosa (Gn-III)): 3.1 µg/mL (≈ 5.23 µM)
- MIC (C. perfringens A9635): 12.5 µg/mL (≈ 21.1 µM)
